Where “and” joins values, the source holds several entries; their conditions need not be identical. Identical values can stand only once.
What was measured:
dendritic cells = test: Example 7: DC recruitment and activation in matrices with GM-CSF and TLR agonists (FACS, day 7); assay type: in vivo, C57BL/6J mice
Excerpt: The cell suspensions were then poured through a 40 μm cell strainer to isolate cells from scaffold particles and the cells were pelleted and washed with cold PBS and counted using a Z2 coulter counter (Beckman Coulter). To assess, DC infiltration and activation, subsets of the total cell population isolated from PLG matrices were then stained with primary antibodies (BD Pharmingen, San Diego, Calif.) conjugated to fluorescent markers to allow for analysis by flow cytometry. APC-conjugated CD11c (dendritic cell marker), FITC-conjugated MHCII and PE-conjugated CD86 (B7, costimulatory molecule) stains were conducted for DC recruitment and activation analysis. To further delineate the presence of specific DC subsets, cells were also stained with APC-conjugated CD11c and PE-conjugated PDCA-1 (plasmacytoid DC marker) or APC-conjugated CD11c and PE-conjugated CD8 (CD8 DCs). To assess T-cell infiltration PE-Cy7 conjugated CD3 stains were performed in conjunction with APC-conjugated CD8a (CD8 T cells), and PE-conjugated FoxP3 (Treg) and analyzed with flow cytometry. Cells were gated according to single positive FITC, APC and PE stainings and using isotype controls. The percentage of cells staining positive for each surface antigen was recorded. To examine the ability of PLG matrices to recruit and activate dendritic cells in vivo, matrices delivering GM-CSF in combination with danger signals were implanted subcutaneously into the backs of C57BL/6J mice. The magnitude of DC infiltration and activation into the matrices was determined by FACS analysis of cell populations isolated from the polymeric material after 7 days.

host DCs = test: In vivo DC recruitment and activation in PLG matrices (FACS); set-up: species or system C57BL/6J mice; conditions: for proportion of CD8+ cDCs in DC population at vaccine site / proportion of pDCs in DC population at vaccine site / total DC numbers in situ: antigen-loaded matrices, CpG and GM-CSF together versus GM-CSF alone
Protocol: Blank scaffolds and scaffolds containing GM-CSF with or without 10 μg PEI-ODN control (5′-tcc atg agc ttc ctg agc tt-3′) (SEQ ID NO: 6) or 10 μg PEI-CpG-ODN condensate loaded scaffolds were implanted into subcutaneous pockets on the back of 7-9 week old male C57BL/6J mice. For histological examination scaffolds were excised and fixed in Z-fix solution, embedded in paraffin, and stained with hematoxylin and eosin. To analyze DC recruitment, scaffolds were excised and the ingrown tissue was digested into single cell suspensions using a collagenase solution (Worthingtion, 250 U/ml) that was agitated at 37° C. for 45 minutes. The cell suspensions were then poured through a 40 μm cell strainer to isolate cells from scaffold particles and the cells were pelleted and washed with cold PBS and counted using a Z2 coulter counter (Beckman Coulter). The resultant cell populations were then stained with primary antibodies (BD Pharmingen, San Diego, Calif.) conjugated to fluorescent markers to allow for analysis by flow cytometry. APC-conjugated CD11c (dendritic cell marker) and PE-conjugated CD86 (B7, costimulatory molecule) stains were conducted for DC recruitment analysis, and APC-conjugated CD11c, FITC-conjugated CCR7, and PE-conjugated MHCII stains were conducted for DC programming analysis. Cells were gated according to positive FITC, APC and PE using isotype controls, and the percentage of cells staining positive for each surface antigen was recorded. To track in vivo DC emigration from scaffolds toward the inguinal lymph nodes, 250 μg of lyophilized fluoroscein isothiocyanate (FITC) (Molecular Probes, Carlsbad, Calif.) was incorporated into scaffolds by mixing with PLG microspheres before scaffold processing, and FITC was also applied by incubating scaffolds with 330 ul of 3% FITC solution for 30 min. […] Cell suspensions from LNs were prepared by digestion in collagenase for 30 min and pressing of the tissue through 70 μm cell strainers, and examined for CD11c(+)FITC(+) cell numbers by flow cytometry.
Blank PLG matrices and matrices containing 3000 ng of GM-CSF alone or in combination with either 1, 10, 50, or 100 μg of CpG-ODN (studies were also performed with tumor lysates copresented with either 3000 ng of GM-CSF or 100 μg of CpG-ODN alone or in combination) were implanted into subcutaneous pockets on the back of 7- to 9-week-old male C57BL/6J mice. For histological examination, scaffolds were excised and fixed in Z-fix solution (Anatech), embedded in paraffin, and stained with hematoxylin and eosin (H&E). To analyze DC recruitment, scaffolds were excised at various time points and digested the ingrown tissue into single-cell suspensions with a collagenase solution (250 U/ml; Worthington) that was agitated at 37° C. for 45 min. The cell suspensions were then poured through a 40-μm cell strainer to isolate cells from scaffold particles, and the cells were pelleted and washed with cold PBS and counted with a Z2 coulter counter (Beckman Coulter). To assess DC infiltration and activation, subsets of the total cell population isolated from PLG matrices were stained with primary antibodies (BD Pharmingen) conjugated to fluorescent markers to allow for analysis by flow cytometry. Allophycocyanin (APC)-conjugated CD11c (DC marker) and phycoerythrin (PE)-conjugated CD86 (B7, costimulatory molecule) stains were conducted for DC recruitment analysis, and APC-conjugated CD11c, fluorescein isothiocyanate (FITC)-conjugated CCR7, and PE-conjugated MHCII stains were conducted for DC programming analysis. To further delineate the presence of specific DC subsets, cells were stained with APC-conjugated CD11c and PE-conjugated PDCA-1 (pDC marker), APC-conjugated CD11c and PE-conjugated CD8 (CD8 DCs), or APC-conjugated CD11c and FITC-conjugated CD11b (CD11b DCs).

B16-F10 melanoma cells = test: Example 7: prophylactic vaccination, B16-F10 melanoma; assay type: in vivo, C57BL/6J mice; set-up: concentration or dose not given beside the values; conditions: for survival rate: B16-F10 tumor lysates and GM-CSF, with or without TLR agonist, challenge at day 14
[1] = test system: IL-12p70, IFN-α, IFN-γ, and TGF-β; test: In vivo cytokine concentrations at matrix implant site (ELISA); set-up: species or system C57BL/6J mice
Protocol: After centrifugation, the concentrations of IL-12, IFN-α, IFN-γ, and TGF-β in the supernatant were then analyzed with enzyme-linked immunosorbent assay (R&D Systems) according to the manufacturer's instructions.

TRP2-specific CTLs = TRP2-specific CTLs in spleens (pentamer staining); assay type: in vivo, C57BL/6J mice; conditions: GM-CSF, antigen
Excerpt: […] These cells were initially stained with APC-H-2Kb-TRP2 pentamers (Proimmune) and subsequently stained with PE-conjugated monoclonal antibody to CD8 (BD Pharmingen) before being analyzed by flow cytometry.

B16-F10 melanoma tumors = test: T-cell infiltration into tumor tissue (immunohistochemistry); assay type: in vivo, C57BL/6J mice
Protocol: PLG scaffolds with melanoma tumor lysates and various dosages of GM-CSF and/or 10 μg PEI-CpG-ODN condensates were implanted subcutaneously into the lower left flank of C57BL/6J mice. Animals were challenged 14 days later with a subcutaneous injection of 10^5 B16-F10 melanoma cells (ATCC, Manassas, N.J.) in the back of the neck. Animals were monitored for the onset of tumor growth (approximately 1 mm^3) and sacrificed for humane reasons when tumors grew to 20-25 mm (longest diameter). For histological examination, tumors were biopsied at days 20-25 after injection and fixed in Z-fix (Anatech, Battle Creek, Mich.) and stained for hematoxylin and eosin. To examine tumor tissue for T-cell infiltration, immunoperoxidase staining was performed using the avidin-biotin-peroxidase Vectastain Elite ABC kit (Vector Laboratories). The primary antibodies used were GK 1.5 (CD4), and 53-6.72 (CD8) and staining was developed using DAB+ substrate chromogen (DAKO, Carpinteria, Calif.). Sections from tumor samples (n=3 or 4) were visualized at 40× and 100× with a Nikon light microscope (Indianapolis, Ind.) and positively stained T-cells were counted manually.

[2] = optimal CpG-ODN doses (10-25 μg) opposed by GM-CSF 3 μg, in vivo
[3] = tumor lysate with GM-CSF and CpG, day 10

CpG-ODN 1826
CD8(+) DCs at implant site, higher than controls (dendritic cells; with GM-CSF): 9 fold
CD11c(+) cells positive for MHCII(+) and CD86(+), of total cells recruited (dendritic cells; with GM-CSF): approximately 30%
enhancement of total number of recruited DCs compared to GM-CSF delivery alone (dendritic cells; with GM-CSF): 2.5 fold
increase in total number of activated DCs relative to control matrices (dendritic cells; with GM-CSF): ~23 fold
numbers of resident pDCs (host DCs; 3000 ng GM-CSF, 10 μg CpG-ODN): 520,000 cells
numbers of resident pDCs (host DCs; 3000 ng GM-CSF, 100 μg CpG-ODN): 1,200,000 cells and 1,100,000 cells
increase in CCR7 expressing DCs in matrices over GM-CSF or CpG-ODN delivery alone (host DCs; CpG-ODN with GM-CSF): ~4.5 fold
increase in MHCII expressing DCs in matrices over GM-CSF or CpG-ODN delivery alone (host DCs; CpG-ODN with GM-CSF): approximately 2.5 fold
total cells at the matrix site that were CD8(+) (host DCs; antigen presenting matrices with GM-CSF and CpG-ODN): 10.3%
proportion of CD8+ cDCs in DC population at vaccine site (host DCs; day 10, listed as CpG): ~14% and ~9.4%
proportion of pDCs in DC population at vaccine site (host DCs; day 10, listed as CpG): ~31% and ~38%
total DC numbers in situ (host DCs; listed as CpG): 3.0±0.6 million DCs and 3.05±0.55 million DCs
optimal CpG-ODN dose for DC activation in vivo (host DCs; in presence of high GM-CSF levels): 10 to 25 µg
numbers of activated DCs generated (host DCs; infection-mimicking system, CpG-ODN ~10-25 μg with GM-CSF): > 10^6
DC activation (host DCs; [2]): 44%
number of activated DCs (host DCs; [2]): 1.5×10^6 cells
increase (factor / fold) in pDCs over blank controls (host DCs; [3]): 10
increase (factor / fold) in pDCs over matrices without lysate/antigen (host DCs; [3]): 2
increase (factor / fold) in CD8+ DCs over blank matrices (host DCs; tumor lysates with CpG-ODN and GM-CSF): 9
number of CD8+ DCs (CD11c(+)CD8(+) cDCs) in matrices (host DCs; tumor lysates with CpG-ODN, no GM-CSF): 200,000
survival rate (B16-F10 melanoma cells): 90%
long-term survival (B16-F10 melanoma cells; wildtype mice, CpG-ODN loaded PLG vaccines): 100%
local production of IFN-α ([1]; high doses of CpG-ODN): ~1010 pg/mL
local production of IL-12 ([1]; high doses of CpG-ODN): 150 pg/mL
TRP2-specific CD8 T cells (TRP2-specific CTLs; CpG dose 50 μg): 0.3 % splenocytes
increase in CD8(+) T-cell infiltration into tumors over controls (B16-F10 melanoma tumors; infection mimics, 10 μg CpG-ODN dose): ~3 fold

B1: granulocyte macrophage colony stimulating factor (protein, UniProt P01587 18-141, looked up)
Granulocyte-macrophage …: APTRSPITVTRPWKHVEAIKEALNLLDDMPVTLNEEVEVVSNEFSFKKLTCVQTRLKIFEQGLRGNFTKLKGALNMTASYYQTYCPPTPETDCETQVTTYADFIDSLKTFLTDIPFECKKPGQK
notes: cytokine encapsulated in and released from PLG matrices to recruit DCs
CD11c(+) cells in matrices (dendritic cells; GM-CSF alone): 241000 cells
CD86 expression (dendritic cells; GM-CSF alone): 4.58 % of CD11c(+) cells
MHCII expression (dendritic cells; GM-CSF alone): 2.57 % of total CD11c(+) cells
day at which activation state of DCs peaked (host DCs; 3000 ng GM-CSF): 10 days
numbers of resident pDCs (host DCs; 3000 ng GM-CSF, 0 μg CpG-ODN): 190,000 cells
increase (factor / fold) in CD11c DCs recruited vs blank PLG matrices (host DCs; 3000 ng GM-CSF, day 14): ~8
day at which activation state of DCs peaked (host DCs; 7000 ng GM-CSF): 28 days
matrix-resident DCs that were CD11b+ (host DCs; GM-CSF delivery): ~87%
number of DCs residing in the material (host DCs; GM-CSF delivery): ~10^6 cells
total DC numbers in situ (host DCs): 4.2±0.9 million DCs and 2.67±0.64 million DCs
proportion of CD8+ cDCs in DC population at vaccine site (host DCs; day 10): 5.5%
proportion of pDCs in DC population at vaccine site (host DCs; day 10): 7%
number of activated DCs (host DCs; best GM-CSF-based vaccine): ~240,000 DCs
recruited DCs that were activated (host DCs; best GM-CSF-based vaccine): approximately 26%
survival rate (B16-F10 melanoma cells): 10%
factor of increase in TGFβ concentrations at vaccine site ([1]; GM-CSF and tumor lysate in matrix): 10
TRP2-specific CD8 T cells (TRP2-specific CTLs; CpG dose 0 μg): 0.2 % splenocytes
increase in CD8(+) cytotoxic T-cell numbers in tumors over blank controls (B16-F10 melanoma tumors; appropriate GM-CSF presentation with antigen): 2 fold
